Reference: patent US20020065219A1, “Water soluble thiazolyl peptide derivatives” (priority 2000, published 2002)
Values after ≈ are worked out from the molar mass of the structure shown. Where two headings read alike, the source gives them in different places.

Columns and labels:
Assay in all cases: MIC, broth micro dilution assay (NCCLS)
Type in all cases: cell-based
[1] = tested on: Streptococcus pneumoniae A28272
[2] = tested on: Enterococcus faecalis A20688
[3] = tested on: Staphylococcus aureus A15090
[4] = 50% Mueller-Hinton medium and 50% Todd Hewitt medium, 35° C., 18 hours
[5] = Mueller-Hinton medium, 35° C., 18 hours

**Q.** With `CCC(O)C1CCCN1CC(NC(=O)c1csc(-c2nc3c(cc2O)-c2nc(cs2)C(=O)NC(C(C)O)C(=O)NC(=C(C)OC)c2nc(cs2)C(=O)NC2c4nc(cs4)C(=O)NC(COC(=O)c4c5c6c(cccc6n4O)COC(=O)C(OC4CC(C)(O)C(N(C)C)C(C)O4)C2OC5)c2nc-3cs2)n1)C(N)=O` (stereo not drawn) [Example 87] as the compound, how does the “MIC (μg/mL) against Streptococcus pneumoniae A28272” value [1, 4] read?
**A.** 0.007 µg/mL (≈ 0.00447 µM)

**Q.** And the “MIC (μg/mL) against Enterococcus faecalis A20688” value [2, 5]?
**A.** 0.06 µg/mL (≈ 0.0383 µM)

**Q.** What about the “MIC (μg/mL) against Staphylococcus aureus A15090” value [3, 5] of the same compound?
**A.** 0.015 µg/mL (≈ 0.00957 µM)

**Q.** What does the source list for `COC(C)=C1NC(=O)C(C(C)O)NC(=O)c2csc(n2)-c2cc(O)c(-c3nc(C(=O)NC(CN4CCN(c5cccnc5)CC4)C(N)=O)cs3)nc2-c2csc(n2)C2COC(=O)c3c4c5c(cccc5n3O)COC(=O)C(OC3CC(C)(O)C(N(C)C)C(C)O3)C(OC4)C(NC(=O)c3csc1n3)c1nc(cs1)C(=O)N2` (stereo not drawn) [Example 85]?
**A.** MIC (μg/mL) against Streptococcus pneumoniae A28272 [1]: 0.007 µg/mL (≈ 0.00437 µM); MIC (μg/mL) against Enterococcus faecalis A20688 [2]: 0.25 µg/mL (≈ 0.156 µM); MIC (μg/mL) against Staphylococcus aureus A15090 [3]: 0.06 µg/mL (≈ 0.0375 µM)

**Q.** What does the source list for `CO/C(C)=C1/NC(=O)C(C(C)O)NC(=O)c2csc(n2)-c2cc(O)c(-c3nc(C(=O)NC(CN4CCN(c5ccncc5)CC4)C(N)=O)cs3)nc2-c2csc(n2)C2COC(=O)c3c4c5c(cccc5n3O)COC(=O)C(O[C@H]3C[C@](C)(O)[C@H](N(C)C)[C@H](C)O3)C(OC4)C(NC(=O)c3csc1n3)c1nc(cs1)C(=O)N2` (stereo partly drawn) [Example 52]?
**A.** MIC (μg/mL) against Streptococcus pneumoniae A28272 [1]: 0.5 µg/mL (≈ 0.312 µM); MIC (μg/mL) against Enterococcus faecalis A20688 [2]: 1.0 µg/mL (≈ 0.625 µM); MIC (μg/mL) against Staphylococcus aureus A15090 [3]: 0.5 µg/mL (≈ 0.312 µM)

**Q.** Which “MIC (μg/mL) against Streptococcus pneumoniae A28272” value [1] does the source give for `CN[C@@H]1[C@H](C)O[C@@H](OC2C(=O)OCc3cccc4c3c3c(n4O)C(=O)OCC4NC(=O)c5csc(n5)C(NC(=O)c5csc(n5)/C(=C(/C)OC)NC(=O)C(C(C)O)NC(=O)c5csc(n5)-c5cc(O)c(-c6nc(C(=O)NC(CN(C)CCO)C(N)=O)cs6)nc5-c5csc4n5)C2OC3)C[C@]1(C)O` (stereo partly drawn) [Example 99] here?
**A.** 0.015 µg/mL (≈ 0.01 µM)

**Q.** And the “MIC (μg/mL) against Enterococcus faecalis A20688” value [2]?
**A.** 0.125 µg/mL (≈ 0.0834 µM)

**Q.** And the “MIC (μg/mL) against Staphylococcus aureus A15090” value [3]?
**A.** 0.03 µg/mL (≈ 0.02 µM)

**Q.** With `COC(C)=C1NC(=O)C(C(C)O)NC(=O)c2csc(n2)-c2cc(O)c(-c3nc(C(=O)NC(CN4CCN(Cc5nc(OC)cc(OC)n5)CC4)C(N)=O)cs3)nc2-c2csc(n2)C2COC(=O)c3c4c5c(cccc5n3O)COC(=O)C(OC3CC(C)(O)C(N(C)C)C(C)O3)C(OC4)C(NC(=O)c3csc1n3)c1nc(cs1)C(=O)N2` (stereo not drawn) [Example 77] as the compound, how does the “MIC (μg/mL) against Streptococcus pneumoniae A28272” value [1] read?
**A.** 0.015 µg/mL (≈ 0.00895 µM)

**Q.** And the “MIC (μg/mL) against Enterococcus faecalis A20688” value [2]?
**A.** 0.5 µg/mL (≈ 0.298 µM)

**Q.** And the “MIC (μg/mL) against Staphylococcus aureus A15090” value [3]?
**A.** 0.125 µg/mL (≈ 0.0746 µM)

**Q.** Which “MIC (μg/mL) against Streptococcus pneumoniae A28272” value [1, 4] does the source give for `CO/C(C)=C1/NC(=O)C(C(C)O)NC(=O)c2csc(n2)-c2cc(O)c(-c3nc(C(=O)NC(CN4CCN(CCOCCO)CC4)C(N)=O)cs3)nc2-c2csc(n2)C2COC(=O)c3c4c5c(cccc5n3O)COC(=O)C(O[C@H]3C[C@](C)(O)[C@H](N(C)C)[C@H](C)O3)C(OC4)C(NC(=O)c3csc1n3)c1nc(cs1)C(=O)N2` (stereo partly drawn) [Example 49] here?
**A.** 0.5 µg/mL (≈ 0.31 µM)

**Q.** What about the “MIC (μg/mL) against Enterococcus faecalis A20688” value [2, 5] of the same compound?
**A.** 2.0 µg/mL (≈ 1.24 µM)

**Q.** And the “MIC (μg/mL) against Staphylococcus aureus A15090” value [3, 5]?
**A.** 0.5 µg/mL (≈ 0.31 µM)

**Q.** Which “MIC (μg/mL) against Streptococcus pneumoniae A28272” value [1] does the source give for `COC(C)=C1NC(=O)C(C(C)O)NC(=O)c2csc(n2)-c2cc(O)c(-c3nc(C(=O)NC(CN4CC5CC4CN5C)C(N)=O)cs3)nc2-c2csc(n2)C2COC(=O)c3c4c5c(cccc5n3O)COC(=O)C(OC3CC(C)(O)C(N(C)C)C(C)O3)C(OC4)C(NC(=O)c3csc1n3)c1nc(cs1)C(=O)N2` (stereo not drawn) [Example 74] here?
**A.** 0.015 µg/mL (≈ 0.00968 µM)

**Q.** What about the “MIC (μg/mL) against Enterococcus faecalis A20688” value [2] of the same compound?
**A.** 2.0 µg/mL (≈ 1.29 µM)

**Q.** And the “MIC (μg/mL) against Staphylococcus aureus A15090” value [3]?
**A.** 0.5 µg/mL (≈ 0.323 µM)

**Q.** `COC(C)=C1NC(=O)C(C(C)O)NC(=O)c2csc(n2)-c2cc(O)c(-c3nc(C(=O)NC(CN4CCCC4C(C)O)C(N)=O)cs3)nc2-c2csc(n2)C2COC(=O)c3c4c5c(cccc5n3O)COC(=O)C(OC3CC(C)(O)C(N(C)C)C(C)O3)C(OC4)C(NC(=O)c3csc1n3)c1nc(cs1)C(=O)N2` (stereo not drawn) [Example 88] was tested. Which “MIC (μg/mL) against Streptococcus pneumoniae A28272” value [1, 4] did it give?
**A.** 0.03 µg/mL (≈ 0.0193 µM)

**Q.** What about the “MIC (μg/mL) against Enterococcus faecalis A20688” value [2, 5] of the same compound?
**A.** 0.06 µg/mL (≈ 0.0386 µM)

**Q.** And the “MIC (μg/mL) against Staphylococcus aureus A15090” value [3, 5]?
**A.** 0.007 µg/mL (≈ 0.00451 µM)
